Tested on: slices of the large intestines
Assay: Degree of permeation of staining solution in slices of large intestines, varying pH
Parameters: species or system rat
Conditions: 0.1 mg/mL, pH 4.0, 5.0, 6.0, 7.0 and saline
Protocol: Slices of the large intestines used in Example 4 were observed, and the degree of permeation of a staining solution was observed. Fluorescein sodium was adjusted to 0.1 mg/mL in the same way as in Example 4 by dilution with solutions with pH 4.0, 5.0, 6.0, and 7.0 and a saline. Imaging was performed with a fluorescence microscope (manufactured by ZEISS, LSM510) under imaging conditions including a pinhole diameter of 1.0 and Max, and 20× and 40× lenses were used.

With O=C1OC2(c3ccc(O)cc3Oc3cc(O)ccc32)c2ccccc21 [F—Na, fluorescein sodium] the “difference in the degree of permeation into the tissues between staining solutions with varying pH” value was “no significant difference”.
